Reference: PMC2909451 (European journal of pharmaceutical sciences : official …, 2010)
Counter-ions that a name gives are not always drawn. Like-named read-outs stand apart in the source and are kept apart here.

Columns and labels:
[1] = molecular target: T1, human apical sodium-dependent transporter (SLC10A2, ASBT) (Homo sapiens, UniProt Q12908)
T1 sequence (Q12908 1-348): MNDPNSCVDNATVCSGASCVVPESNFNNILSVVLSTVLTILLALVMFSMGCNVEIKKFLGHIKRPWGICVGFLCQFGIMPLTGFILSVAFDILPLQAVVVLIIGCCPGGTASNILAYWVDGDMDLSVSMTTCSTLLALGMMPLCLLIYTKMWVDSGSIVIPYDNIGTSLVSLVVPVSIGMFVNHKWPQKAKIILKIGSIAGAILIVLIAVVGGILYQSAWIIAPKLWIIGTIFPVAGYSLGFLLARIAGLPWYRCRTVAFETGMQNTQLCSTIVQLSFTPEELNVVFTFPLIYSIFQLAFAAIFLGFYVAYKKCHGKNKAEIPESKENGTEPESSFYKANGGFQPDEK

[2] = molecular target: T1, human apical sodium-dependent transporter (SLC10A2, ASBT); assay: ASBT cis-inhibition of taurocholate uptake in ASBT-MDCK cells; details: for potency estimated from few doses: read-out: Ki estimated from one concentration; for inhibition at 5 µM / inhibition at 10 µM / inhibition at 25 µM / inhibition at 200 µM / inhibition at 1000 µM / inhibition at 5000 µM: read-out: percent taurocholate inhibited at the highest inhibitor concentration
[3] = Ki, inhibitor concentration range 0-10 μM, mean±S.E.
[4] = Ki, inhibitor concentration range 0-50 μM, mean±S.E.
[5] = Ki, inhibitor concentration range 0-100 μM, mean±S.E.
[6] = Ki, inhibitor concentration range 0-200 μM, mean±S.E.
[7] = Ki, inhibitor concentration range 0-500 μM, mean±S.E.
[8] = Ki, inhibitor concentrations 0, 25 μM (Table 2), mean±S.E.
[9] = Reference Ki, from the comprehensive inhibition profile
[10] = Ki, inhibitor concentration range 0-5 μM, mean±S.E.
[11] = Ki, inhibitor concentration range 0-25 μM, mean±S.E.
[12] = Ki, inhibitor concentration range 0-1000 μM, mean±S.E.
[13] = Ki, inhibitor concentration range 0-5000 μM, mean±S.E.

inhibition ([1]; 50 µM) [%] | inhibition ([1]; 100 µM) [%] | inhibition ([1]; 500 µM) [%] | Ki [2, 4] [µM] | Ki [2, 5] [µM] | Ki [2, 6] [µM] | Ki [2, 7] [µM] | Ki [2, 9] [µM] | potency estimated from few doses [2] [µM] | inhibition at 10 µM [2] [%] | inhibition at 25 µM [2] [%] | inhibition at 200 µM [2] [%] | Ki [2, 11] [µM] | Ki [2, 12] [µM] | inhibition at 1000 µM [2] [%] | SMILES | other results
19.4 | 37.8 | 71 | 148 ± 33 | 118 ± 15 | 115 ± 10 | 117 ± 8 | 117 | 123 ± 11 | 11.7 | 8.9 | 53.3 | – | – | – | CC(C)c1nc(N(C)S(C)(=O)=O)nc(-c2ccc(F)cc2)c1/C=C/[C@@H](O)C[C@@H](O)CC(=O)O [Rosuvastatin] | Ki [2, 3]: 46.7 ± 14.4 µM; Ki ([2]; Ki, inhibitor concentrations 0, 5 μM (Table 2), mean±S.E.): 196 ± 423 µM; Ki [2, 8]: 147 ± 67 µM; inhibition at 5 µM [2]: 1.54%
36.5 | 52.4 | 78.6 | 59.8 ± 7.5 | 60.9 ± 5.3 | 64.9 ± 4.8 | 67.6 ± 4.8 | 67.6 | 56.1 ± 4.4 | 14.4 | 22.7 | 64.6 | 54.1 ± 10.9 | – | – | O=C(O)C[C@H](O)C[C@H](O)/C=C/c1c(C2CC2)nc2ccccc2c1-c1ccc(F)cc1 [Pitavastatin] | Ki [2, 10]: 27.9 ± 7.3 µM; Ki [2, 3]: 29.7 ± 5.9 µM; inhibition at 5 µM [2]: 10.4%
29.5 | 39.4 | 73.6 | 62.1 ± 11.3 | 86.9 ± 14.7 | 134 ± 25 | 132 ± 19 | 120 | 116 ± 2 | 5.99 | 30.2 | 44.4 | 40.9 ± 7.09 | 120 ± 16 | 91.9 | Cc1c(OCC(F)(F)F)ccnc1C[S+]([O-])c1nc2ccccc2[nH]1 (centres unmarked) [Lansoprazole] | Ki ([2]; Ki, inhibitor concentrations 0, 10 μM (Table 4), mean±S.E.): 103 ± 37 µM
60.3 | 79.4 | 96.2 | 15.1 ± 2.4 | 14.3 ± 2 | 13.6 ± 1.9 | 13.3 ± 1.9 | 13.3 | 17.3 ± 2.7 | 34.3 | 46.9 | 90 | 14 ± 2.8 | – | – | CC(C)OC(=O)CCC/C=C\C[C@@H]1[C@@H](CC[C@@H](O)CCc2ccccc2)[C@H](O)C[C@@H]1O [Latanoprost, latanoprost] | Ki [2, 10]: 19.3 ± 6.7 µM; Ki [2, 3]: 12.2 ± 2.9 µM; inhibition at 5 µM [2]: 28.1%
27.3 | 46.8 | 76.4 | 80.5 ± 13.7 | 77.9 ± 8.4 | 84.2 ± 7.3 | 87.8 ± 6.8 | 86.4 | 86.9 ± 12.5 | 11 | 23.2 | 59.1 | 53.9 ± 8.9 | 86.4 ± 6 | 89.5 | COc1ccc2c(c1)c(CC(=O)O)c(C)n2C(=O)c1ccc(Cl)cc1 [Indomethacin, indomethacin] | Ki [2, 3]: 52.6 ± 13.6 µM
– | – | 49.7 | – | – | 255 ± 14 | 305 ± 26 | 310 | 336 ± 26 | – | – | 34.2 | – | 328 ± 24 | 64.7 | CC(C(=O)O)c1cccc(C(=O)c2ccccc2)c1 (centres unmarked) [Ketoprofen, ketoprofen] | Ki [2, 13]: 310 ± 28 µM; inhibition at 5000 µM [2]: 98%
12.2 | 15.6 | 48 | 232 ± 60 | 343 ± 75 | 299 ± 33 | 338 ± 28 | 341 | 354 ± 35 | – | 7.1 | 32.1 | 211 ± 108 | 341 ± 22 | 65.6 | CCCCNc1cc(C(=O)O)cc(S(N)(=O)=O)c1Oc1ccccc1 [Bumetanide, bumetanide] | –
19.5 | 26.5 | 52.4 | 124 ± 16 | 174 ± 26 | 221 ± 28 | 273 ± 30 | 301 | 296 ± 22 | – | 16 | 36.4 | – | 301 ± 28 | 66.1 | COc1ccc([C@@H]2Sc3ccccc3N(CCN(C)C)C(=O)[C@@H]2OC(C)=O)cc1 [Diltiazem hydrochloride, diltiazem hydrochloride] | Ki [2, 8]: 86.4 ± 11.9 µM
52.6 | 77 | 95.5 | 27.4 ± 2 | 24.9 ± 1.9 | 25.1 ± 1.6 | 24.9 ± 1.6 | 24.8 | 29.7 ± 2.4 | – | 40.2 | 82.9 | 24.5 ± 2.4 | 24.8 ± 1.4 | 96.2 | CC(C)n1c(/C=C/C(O)CC(O)CC(=O)O)c(-c2ccc(F)cc2)c2ccccc21 (centres unmarked) [Fluvastatin, fluvastatin] | Ki [2, 13]: 24.8 ± 1.3 µM; inhibition at 5000 µM [2]: 99.8%
27.6 | 43.8 | 73.7 | 93.2 ± 12.5 | 85.8 ± 7.6 | 96.2 ± 7.7 | 101 ± 7 | 101 | 116 ± 3 | – | 10.5 | 53.9 | – | 101 ± 6 | 86.7 | CCCCOc1cc(C(=O)NCCN(CC)CC)c2ccccc2n1 [Dibucaine hydrochloride, dibucaine hydrochloride] | Ki [2, 8]: 140 ± 17 µM

The remaining lines, values behind:

SMILES | inhibition ([1]; 50 µM) [%] | inhibition ([1]; 100 µM) [%] | inhibition ([1]; 500 µM) [%] | Ki [2, 4] [µM] | Ki [2, 5] [µM] | Ki [2, 6] [µM] | Ki [2, 7] [µM] | Ki [2, 9] [µM] | potency estimated from few doses [2] [µM] | inhibition at 10 µM [2] [%] | inhibition at 25 µM [2] [%] | inhibition at 200 µM [2] [%] | Ki [2, 11] [µM] | Ki [2, 12] [µM] | inhibition at 1000 µM [2] [%] | other results
COCc1c(C(C)C)nc(C(C)C)c(/C=C/[C@@H](O)C[C@@H](O)CC(=O)O)c1-c1ccc(F)cc1 [Cerivastatin, cerivastatin] | – | – | – | – | – | – | – | – | 47.4 ± 22.5 | – | – | – | – | – | – | –
CN1CCN(CC/C=C2/c3ccccc3Sc3ccc(S(=O)(=O)N(C)C)cc32)CC1 [Thiothixene, thiothixene] | – | – | 25.7 | – | – | 1030 ± 344 | 913 ± 115 | 917 | 905 ± 105 | – | – | 34.6 | – | 1110 ± 136 | 11 | Ki [2, 13]: 917 ± 111 µM; inhibition at 5000 µM [2]: 83.3%
COC(=O)C1=C(C)NC(C)=C(C(=O)OC(C)C)C1c1cccc2nonc12 (centres unmarked) [Isradipine, isradipine] | 49.7 | 68.1 | – | 42.7 ± 7.4 | 38.8 ± 5.1 | 36.4 ± 4.2 | – | 36.4 | 32.7 ± 2.7 | 12.1 | 25.7 | 82.5 | 60.4 ± 19.6 | – | – | Ki [2, 10]: 17.5 ± 6.6 µM; Ki [2, 3]: 53.4 ± 35.1 µM; Ki ([2]; Ki, inhibitor concentration range 0-[…], mean±S.E.): 9.55 ± 3.67 µM; inhibition at 5 µM [2]: 14.4%
N=C(N)c1ccc(OCCCCCOc2ccc(C(=N)N)cc2)cc1 [Pentamidine Isethionate, pentamidine isethionate] | 10.7 | 27.9 | 62.8 | 253 ± 126 | 189 ± 40 | 147 ± 23 | 164 ± 20 | 174 | 194 ± 27 | – | 10.9 | 52.7 | – | 174 ± 19 | 74.4 | Ki [2, 8]: 134 ± 82 µM
CC(C)(C#N)c1cc(Cn2cncn2)cc(C(C)(C)C#N)c1 [Anastrozole] | 12 | 13.2 | 35.6 | 231 ± 87 | 451 ± 163 | 700 ± 196 | 686 ± 99 | 745 | 601 ± 69 | – | 9.73 | 18 | – | 745 ± 74 | 48.3 | Ki [2, 8]: 153 ± 79 µM
Clc1ccc(C(Cn2ccnc2)OCc2ccsc2Cl)c(Cl)c1 (centres unmarked) [Tioconazole, tioconazole] | 47.7 | 63.7 | 87.1 | 32.7 ± 4.7 | – | 33.7 ± 3.1 | 33.6 ± 2.8 | 34.1 | 33 ± 6.2 | – | 32.2 | 74 | 32.3 ± 6.3 | 34.1 ± 2.7 | 87.2 | Ki ([2]; inhibitor concentration range 0-100 μM, mean±S.E.): 32.8 ± 3.6 µM
NS(=O)(=O)c1cc2c(cc1C(F)(F)F)NC(Cc1ccccc1)NS2(=O)=O (centres unmarked) [Bendroflumethiazide, bendroflumethiazide] | 30.5 | 37.6 | 63.6 | 84.3 ± 20.7 | 96.4 ± 16.2 | 121 ± 18 | 144 ± 20 | 149 | 188 ± 21 | – | 8.86 | 46.6 | 166 ± 115 | 149 ± 18 | 79.4 | –
CN1CCCCC1CCN1c2ccccc2Sc2ccc([S+](C)[O-])cc21 (centres unmarked) [Mesoridazine besylate] | 31.3 | 52.5 | 79.8 | 69.9 ± 19.5 | 59.6 ± 9.9 | 63.6 ± 8.2 | 64.9 ± 7.3 | 63.5 | 59.5 ± 7.3 | – | – | 62.2 | – | 63.5 ± 6.6 | 94 | –
